Data taken from patent EP4043466B1, “PRC2 INHIBITORS” (Mirati Therapeutics, Inc., priority 2018, dated 2019).

Tests used:
Karpas 422 cells = test: Karpas 422 cell viability, CTG (Cell Titre Glo) assay; type: cell-based, human; conditions: Homo sapiens; Inhibition of proliferation of Karpas 422 cells (EZH2 Y641N); viability measured Day 4, Day 7 or Day 11, time point of the tabulated values not stated
Procedure, shortened: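 Karpas 422 cells (EZH2 Y641N, DLBCL) plated at 1000 cells/well in RPMI with 20% FBS, exposed to compound 10µM down to 1.5nM in 3-fold steps at 37 °C. Viability by CellTiter-Glo on Days 4, 7 and 11; Day 11 plates re-fed with fresh medium and compound on Day 7. IC50 per time point.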

[1] = biological target: purified human, His-tagged PRC2 complex (Homo sapiens, UniProt O75530+Q15910); test: Hot Spot HMT assay: inhibition of PRC2 enzymatic activity (transfer of tritiated methyl from SAM to core histone, filter binding); type: biochemical; conditions: Inhibition of PRC2-mediated enzymatic activity; 10 nM PRC2 complex, 0.05 mg/ml core histone H3, 1 uM 3H-SAM, 1 hr at 30°C
Sequence of purified human, His-tagged PRC2 complex (Q15910 whole entry): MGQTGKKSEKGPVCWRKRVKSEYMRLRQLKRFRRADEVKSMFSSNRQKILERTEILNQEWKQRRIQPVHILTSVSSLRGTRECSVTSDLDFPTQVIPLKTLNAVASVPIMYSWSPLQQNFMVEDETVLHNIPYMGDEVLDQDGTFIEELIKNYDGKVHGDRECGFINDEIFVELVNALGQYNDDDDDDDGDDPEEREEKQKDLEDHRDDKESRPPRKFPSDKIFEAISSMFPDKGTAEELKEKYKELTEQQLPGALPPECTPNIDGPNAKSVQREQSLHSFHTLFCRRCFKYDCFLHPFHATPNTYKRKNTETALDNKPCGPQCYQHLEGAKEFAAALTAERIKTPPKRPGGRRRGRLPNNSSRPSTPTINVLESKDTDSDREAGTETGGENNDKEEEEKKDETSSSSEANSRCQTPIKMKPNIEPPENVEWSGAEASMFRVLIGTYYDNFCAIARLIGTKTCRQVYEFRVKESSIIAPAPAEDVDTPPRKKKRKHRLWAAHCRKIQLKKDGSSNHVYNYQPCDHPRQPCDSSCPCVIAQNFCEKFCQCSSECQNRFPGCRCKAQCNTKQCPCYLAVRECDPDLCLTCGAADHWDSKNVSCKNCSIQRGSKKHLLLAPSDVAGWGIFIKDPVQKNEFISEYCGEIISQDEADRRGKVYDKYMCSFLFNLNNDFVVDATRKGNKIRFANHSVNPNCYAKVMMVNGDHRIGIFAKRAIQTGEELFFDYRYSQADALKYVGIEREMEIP
Sequence of purified human, His-tagged PRC2 complex (O75530 whole entry): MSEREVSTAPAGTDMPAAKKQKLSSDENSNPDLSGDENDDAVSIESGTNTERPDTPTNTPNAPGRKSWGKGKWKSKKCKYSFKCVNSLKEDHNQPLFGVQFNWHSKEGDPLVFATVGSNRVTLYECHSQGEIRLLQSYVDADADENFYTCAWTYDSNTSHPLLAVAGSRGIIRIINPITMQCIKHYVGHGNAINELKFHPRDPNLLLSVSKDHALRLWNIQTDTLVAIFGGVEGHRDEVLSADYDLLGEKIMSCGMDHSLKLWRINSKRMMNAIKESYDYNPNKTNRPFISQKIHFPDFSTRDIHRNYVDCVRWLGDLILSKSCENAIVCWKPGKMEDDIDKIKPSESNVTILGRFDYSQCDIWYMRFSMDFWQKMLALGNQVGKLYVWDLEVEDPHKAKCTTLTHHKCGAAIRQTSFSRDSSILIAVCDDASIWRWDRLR
Sequence of purified human, His-tagged PRC2 complex (Q15022 whole entry partner): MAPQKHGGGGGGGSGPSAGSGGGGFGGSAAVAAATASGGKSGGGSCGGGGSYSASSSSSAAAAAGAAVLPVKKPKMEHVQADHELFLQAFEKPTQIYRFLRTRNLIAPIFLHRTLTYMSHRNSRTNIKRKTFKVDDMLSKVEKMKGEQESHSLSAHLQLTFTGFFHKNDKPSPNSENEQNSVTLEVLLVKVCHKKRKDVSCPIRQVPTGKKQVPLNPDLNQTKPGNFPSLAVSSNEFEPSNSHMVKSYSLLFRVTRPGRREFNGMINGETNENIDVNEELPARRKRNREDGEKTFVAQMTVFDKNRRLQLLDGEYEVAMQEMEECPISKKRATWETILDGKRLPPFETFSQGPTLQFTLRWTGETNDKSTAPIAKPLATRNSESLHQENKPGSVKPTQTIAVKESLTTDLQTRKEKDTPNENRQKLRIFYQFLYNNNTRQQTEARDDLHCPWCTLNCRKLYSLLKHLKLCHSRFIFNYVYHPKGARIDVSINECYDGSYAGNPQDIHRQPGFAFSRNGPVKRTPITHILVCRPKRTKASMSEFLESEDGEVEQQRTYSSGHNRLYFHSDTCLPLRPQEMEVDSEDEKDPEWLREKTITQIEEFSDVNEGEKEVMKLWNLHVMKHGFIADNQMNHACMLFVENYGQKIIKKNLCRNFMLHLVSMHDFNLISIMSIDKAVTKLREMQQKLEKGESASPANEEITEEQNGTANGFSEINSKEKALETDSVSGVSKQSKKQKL
Sequence of purified human, His-tagged PRC2 complex (Q6ZN18 whole entry partner): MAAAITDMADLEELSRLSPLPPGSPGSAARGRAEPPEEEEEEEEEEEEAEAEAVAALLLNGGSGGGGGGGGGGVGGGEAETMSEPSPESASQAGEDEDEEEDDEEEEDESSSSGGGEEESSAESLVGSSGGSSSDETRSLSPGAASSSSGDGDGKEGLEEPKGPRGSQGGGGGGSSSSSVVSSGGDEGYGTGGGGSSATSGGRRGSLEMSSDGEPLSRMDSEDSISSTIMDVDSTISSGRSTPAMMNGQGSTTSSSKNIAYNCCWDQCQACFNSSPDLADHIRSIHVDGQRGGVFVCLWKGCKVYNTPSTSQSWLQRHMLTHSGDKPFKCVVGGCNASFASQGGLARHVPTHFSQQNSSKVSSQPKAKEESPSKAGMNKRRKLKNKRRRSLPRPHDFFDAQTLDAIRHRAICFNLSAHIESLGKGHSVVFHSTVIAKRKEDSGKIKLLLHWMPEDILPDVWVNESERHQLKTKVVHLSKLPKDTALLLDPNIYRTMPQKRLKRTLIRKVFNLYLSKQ
Sequence of purified human, His-tagged PRC2 complex (Q09028 whole entry partner): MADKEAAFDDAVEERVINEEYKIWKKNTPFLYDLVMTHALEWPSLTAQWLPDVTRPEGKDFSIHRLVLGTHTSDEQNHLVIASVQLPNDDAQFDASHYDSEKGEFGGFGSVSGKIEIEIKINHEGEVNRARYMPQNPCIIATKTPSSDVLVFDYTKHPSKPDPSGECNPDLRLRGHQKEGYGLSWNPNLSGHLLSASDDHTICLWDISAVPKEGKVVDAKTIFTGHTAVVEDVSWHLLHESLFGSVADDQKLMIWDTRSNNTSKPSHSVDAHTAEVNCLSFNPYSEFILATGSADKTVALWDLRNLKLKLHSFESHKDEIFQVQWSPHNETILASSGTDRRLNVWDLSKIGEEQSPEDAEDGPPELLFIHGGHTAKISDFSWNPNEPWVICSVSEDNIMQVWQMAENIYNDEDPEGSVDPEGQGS
Procedure, shortened: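 Five-subunit complex (His-EZH2, Flag-EED, His-SUZ12, His-AEBP2, His-RbAp48) at 10 nM with 0.05 mg/ml core histone H3, pH 8 Tris buffer, 1% DMSO; 20 min compound pre-incubation at 30°C. Started with 1 uM [3H]-SAM, 1 hr at 30°C; tritiated H3 counted by scintillation. Compounds diluted from 1.0 µM top concentration.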

[2] = tested on: PRC2-mediated histone H3 methylation; test: Tri-Methyl Histone H3 (Lys 27) Sandwich ELISA in Pfeiffer cells: inhibition of PRC2-mediated histone H3 methylation; type: cell-based, human; conditions: Homo sapiens; Inhibition of EZH2-mediated histone H3 trimethylation; Pfeiffer cells (EZH2 A677G), 96 hours incubation
Procedure, shortened: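 Pfeiffer DLBCL cells (EZH2 A677G mutant) treated with 3-fold serial dilutions, 1µM to 0.15 nM final, for 96 hours at 37°C. Acid (0.4M HCl) histone extracts, neutralized, assayed by H3K27me3 sandwich ELISA with HRP/TMB read at 450 nm.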

IC50 (Karpas 422 cells): ≤ 250 nM | IC50 [1]: 100 to 500 nM | IC50 [2]: 100 to 500 nM
Structure (SMILES): N#Cc1cn2c(NCc3c(F)ccc4c3CCO4)ncc(-c3ccc(C4CCN4)cc3)c2n1 (stereo not drawn) [Example 226, 8-(4-(azetidin-2-yl)phenyl)-5-(((5-fluoro-2,3-dihydrobenzofuran-4-yl)methyl)amino)imidazo[1,2-c]pyrimidine-2-carbonitrile]
